In patent publication US8076487B2, “Pyridone derivative and herbicide” (Kumiai Chemical Industry Co., Ltd., priority 2006, dated 2011):

Assays:
Type in all cases: in vivo
[1] = test system: Japanese bulrush (Scirpus juncoides Roxb.); test: Test Example 1: herbicidal effect by soil application to paddy field; settings: paddy field soil application; active ingredient 1,000 g per 1 hectare; wettable powder added dropwise to water surface the day after sowing; examined on the 21st day after application
How it was run: (§1)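 Under greenhouse conditions, seeds sown on puddled paddy soil in 100 cm2 pots under 3 cm of standing water received the test compound; injury was assessed with a standard scoring scheme three weeks (day 21) after treatment.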

[2] = test system: early watergrass (Echinochloa oryzicola Vasing); test: as above; settings: paddy field soil application; active ingredient 1,000 g per 1 hectare; wettable powder added dropwise to water surface the day after sowing; examined on the 21st day after application
How it was run: as §1

[3] = test system: heartshape false pickerelweed (Monochoria vaginalis (Burm.f.) C.Presl); test: as above; settings: paddy field soil application; active ingredient 1,000 g per 1 hectare; wettable powder added dropwise to water surface the day after sowing; examined on the 21st day after application
How it was run: as §1

[4] = test system: slender amaranth (Amaranthus viridis L.); test: Test Example 3: herbicidal effect by application to upland field (foliage treatment); settings: 14th day after application; for herbicidal effect (index), Slender Amaranth: foliage treatment, plants grown two weeks, 1,000 g active ingredient per hectare
How it was run: (§2)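 Read-out is a visual herbicidal-effect grade on a standard scale, taken on the 14th day after a single foliar spray. The spray was wettable powder diluted in water, 1,000 g active ingredient/ha at 1,000 L/ha, applied to greenhouse plants two weeks after sowing.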

[5] = test system: barnyardgrass (Echinochloa crus-galli (L.) P. Beauv. var. crus-galli); test: as above; settings: 14th day after application; for herbicidal effect (index), Barnyardgrass: foliage treatment, plants grown two weeks, 1,000 g active ingredient per hectare
How it was run: as §2

[6] = test system: velvetleaf (Abutilon theophrasti medicus); test: as above; settings: 14th day after application; for herbicidal effect (index), Velvetleaf: foliage treatment, plants grown two weeks, 1,000 g active ingredient per hectare
How it was run: as §2

[7] = test system: green foxtail (Setaria viridis (L.) P. Beauv.); test: as above; settings: 14th day after application; for herbicidal effect (index), Green Foxtail: foliage treatment, plants grown two weeks, 1,000 g active ingredient per hectare
How it was run: as §2

[8] = test system: slender amaranth (Amaranthus viridis L.); test: Test Example 2: herbicidal effect by soil application to upland field; settings: soil surface spray, upland field soil, 1,000 g active ingredient per hectare, 21st day after application
How it was run: (§3)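 Soil-applied wettable powder, 1,000 g a.i./ha, sprayed after sowing onto covered field soil. Effect rated on a standard scale 21 days later in a greenhouse.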

[9] = test system: barnyardgrass (Echinochloa crus-galli (L.) P. Beauv. var. crus-galli); test: as above; settings: soil surface spray, upland field soil, 1,000 g active ingredient per hectare, 21st day after application
How it was run: as §3

[10] = test system: velvetleaf (Abutilon theophrasti medicus); test: as above; settings: soil surface spray, upland field soil, 1,000 g active ingredient per hectare, 21st day after application
How it was run: as §3

[11] = test system: green foxtail (Setaria viridis (L.) P. Beauv.); test: as above; settings: soil surface spray, upland field soil, 1,000 g active ingredient per hectare, 21st day after application
How it was run: as §3

[12] = foliage treatment, 1,000 g active ingredient per 1 hectare, greenhouse

CN(C)n1c(C(F)(F)F)ccc(C(=O)C2=C(O)CCCC2=O)c1=O [I-171]
herbicidal effect, Scirpus juncoides Roxb. [1]: 5 (90% or more of herbicidal effect and crop phytotoxicity) | herbicidal effect, Echinochloa oryzicola Vasing [2]: 5 (90% or more of herbicidal effect and crop phytotoxicity) | herbicidal effect, Monochoria vaginalis (Burm. f.) C. Presl [3]: 5 (90% or more of herbicidal effect and crop phytotoxicity) | herbicidal effect, Slender Amaranth [4, 12]: 5 (90% or more of herbicidal effect and crop phytotoxicity) | herbicidal effect, Barnyardgrass [5, 12]: 5 (90% or more of herbicidal effect and crop phytotoxicity) | herbicidal effect, Velvetleaf [6, 12]: 5 (90% or more of herbicidal effect and crop phytotoxicity) | herbicidal effect, Green Foxtail [7, 12]: 4 (70 to less than 90% of herbicidal effect and crop phytotoxicity) | herbicidal effect (index), Slender Amaranth [8]: 5 (90% or more of herbicidal effect and crop phytotoxicity) | herbicidal effect (index), Barnyardgrass [9]: 5 (90% or more of herbicidal effect and crop phytotoxicity) | herbicidal effect (index), Velvetleaf [10]: 5 (90% or more of herbicidal effect and crop phytotoxicity) | herbicidal effect (index), Green Foxtail [11]: 4 (70 to less than 90% of herbicidal effect and crop phytotoxicity)

O=C1CCCC(O)=C1C(=O)c1ccc(C(F)(F)F)n(CSC2CC2)c1=O [I-52]
herbicidal effect, Scirpus juncoides Roxb. [1]: 5 (90% or more of herbicidal effect and crop phytotoxicity) | herbicidal effect, Echinochloa oryzicola Vasing [2]: 5 (90% or more of herbicidal effect and crop phytotoxicity) | herbicidal effect, Monochoria vaginalis (Burm. f.) C. Presl [3]: 5 (90% or more of herbicidal effect and crop phytotoxicity) | herbicidal effect (index), Slender Amaranth [4]: 5 (90% or more of herbicidal effect and crop phytotoxicity) | herbicidal effect (index), Barnyardgrass [5]: 5 (90% or more of herbicidal effect and crop phytotoxicity) | herbicidal effect (index), Velvetleaf [6]: 5 (90% or more of herbicidal effect and crop phytotoxicity) | herbicidal effect (index), Green Foxtail [7]: 5 (90% or more of herbicidal effect and crop phytotoxicity) | herbicidal effect (index), Slender Amaranth [8]: 5 (90% or more of herbicidal effect and crop phytotoxicity) | herbicidal effect (index), Barnyardgrass [9]: 5 (90% or more of herbicidal effect and crop phytotoxicity) | herbicidal effect (index), Velvetleaf [10]: 5 (90% or more of herbicidal effect and crop phytotoxicity) | herbicidal effect (index), Green Foxtail [11]: 5 (90% or more of herbicidal effect and crop phytotoxicity)

COCC(C)n1c(C(F)(F)F)ccc(C(=O)C2=C(O)CCCC2=O)c1=O (stereo not drawn) [I-33]
herbicidal effect, Scirpus juncoides Roxb. [1]: 5 (90% or more of herbicidal effect and crop phytotoxicity) | herbicidal effect, Echinochloa oryzicola Vasing [2]: 5 (90% or more of herbicidal effect and crop phytotoxicity) | herbicidal effect, Monochoria vaginalis (Burm. f.) C. Presl [3]: 5 (90% or more of herbicidal effect and crop phytotoxicity) | herbicidal effect (index), Slender Amaranth [4]: 5 (90% or more of herbicidal effect and crop phytotoxicity) | herbicidal effect (index), Barnyardgrass [5]: 5 (90% or more of herbicidal effect and crop phytotoxicity) | herbicidal effect (index), Velvetleaf [6]: 5 (90% or more of herbicidal effect and crop phytotoxicity) | herbicidal effect (index), Green Foxtail [7]: 4 (70 to less than 90% of herbicidal effect and crop phytotoxicity) | herbicidal effect (index), Slender Amaranth [8]: 5 (90% or more of herbicidal effect and crop phytotoxicity) | herbicidal effect (index), Barnyardgrass [9]: 5 (90% or more of herbicidal effect and crop phytotoxicity) | herbicidal effect (index), Velvetleaf [10]: 5 (90% or more of herbicidal effect and crop phytotoxicity) | herbicidal effect (index), Green Foxtail [11]: 3 (50 to less than 70% of herbicidal effect and crop phytotoxicity)
